Results as given in US12559506B2, “Indazole based compounds and associated methods of use” (Arvinas Operations, Inc., priority 2021, dated 2026).

Tests used:
[1] = target: T1, wildtype LRRK2 (Homo sapiens, UniProt Q5S007); experiment: LRRK2 degradation assay, HiBit-tagged wildtype LRRK2 expressed from plasmid in HEK293 cells (Nano-Glo Dual-Luciferase); assay type: cell-based; conditions: HiBit-tagged wildtype LRRK2, HEK293 cells, 24 hours; for Dmax: read-out: **WT Dmax (%); for DC50: read-out: *WT DC50
T1 construct: expressed in transfected cells; host or cells: HEK293 (ATCC CRL-1573), transient transfection, mammalian expression vector with ubiquitin promoter
In short: (§1)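 HEK293 cells co-transfected with C-terminal HiBiT-tagged LRRK2 (WT or G2019S, ubiquitin promoter) and firefly luciferase, then dosed 24 h at 37 °C. HiBiT/firefly ratio normalized to DMSO median; DC50 and Dmax from per-plate curve fits, six replicates over two days.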

[2] = target: T2, G2019S LRRK2 (Homo sapiens, UniProt Q5S007, G2019S); experiment: LRRK2 degradation assay, HiBit-tagged G2019S LRRK2 expressed from plasmid in HEK293 cells (Nano-Glo Dual-Luciferase); assay type: cell-based; conditions: HiBit-tagged G2019S LRRK2, HEK293 cells, 24 hours
T2 construct: expressed in transfected cells; host or cells: HEK293 (ATCC CRL-1573), transient transfection, mammalian expression vector with ubiquitin promoter
In short: as §1

T1 sequence (Q5S007 whole entry): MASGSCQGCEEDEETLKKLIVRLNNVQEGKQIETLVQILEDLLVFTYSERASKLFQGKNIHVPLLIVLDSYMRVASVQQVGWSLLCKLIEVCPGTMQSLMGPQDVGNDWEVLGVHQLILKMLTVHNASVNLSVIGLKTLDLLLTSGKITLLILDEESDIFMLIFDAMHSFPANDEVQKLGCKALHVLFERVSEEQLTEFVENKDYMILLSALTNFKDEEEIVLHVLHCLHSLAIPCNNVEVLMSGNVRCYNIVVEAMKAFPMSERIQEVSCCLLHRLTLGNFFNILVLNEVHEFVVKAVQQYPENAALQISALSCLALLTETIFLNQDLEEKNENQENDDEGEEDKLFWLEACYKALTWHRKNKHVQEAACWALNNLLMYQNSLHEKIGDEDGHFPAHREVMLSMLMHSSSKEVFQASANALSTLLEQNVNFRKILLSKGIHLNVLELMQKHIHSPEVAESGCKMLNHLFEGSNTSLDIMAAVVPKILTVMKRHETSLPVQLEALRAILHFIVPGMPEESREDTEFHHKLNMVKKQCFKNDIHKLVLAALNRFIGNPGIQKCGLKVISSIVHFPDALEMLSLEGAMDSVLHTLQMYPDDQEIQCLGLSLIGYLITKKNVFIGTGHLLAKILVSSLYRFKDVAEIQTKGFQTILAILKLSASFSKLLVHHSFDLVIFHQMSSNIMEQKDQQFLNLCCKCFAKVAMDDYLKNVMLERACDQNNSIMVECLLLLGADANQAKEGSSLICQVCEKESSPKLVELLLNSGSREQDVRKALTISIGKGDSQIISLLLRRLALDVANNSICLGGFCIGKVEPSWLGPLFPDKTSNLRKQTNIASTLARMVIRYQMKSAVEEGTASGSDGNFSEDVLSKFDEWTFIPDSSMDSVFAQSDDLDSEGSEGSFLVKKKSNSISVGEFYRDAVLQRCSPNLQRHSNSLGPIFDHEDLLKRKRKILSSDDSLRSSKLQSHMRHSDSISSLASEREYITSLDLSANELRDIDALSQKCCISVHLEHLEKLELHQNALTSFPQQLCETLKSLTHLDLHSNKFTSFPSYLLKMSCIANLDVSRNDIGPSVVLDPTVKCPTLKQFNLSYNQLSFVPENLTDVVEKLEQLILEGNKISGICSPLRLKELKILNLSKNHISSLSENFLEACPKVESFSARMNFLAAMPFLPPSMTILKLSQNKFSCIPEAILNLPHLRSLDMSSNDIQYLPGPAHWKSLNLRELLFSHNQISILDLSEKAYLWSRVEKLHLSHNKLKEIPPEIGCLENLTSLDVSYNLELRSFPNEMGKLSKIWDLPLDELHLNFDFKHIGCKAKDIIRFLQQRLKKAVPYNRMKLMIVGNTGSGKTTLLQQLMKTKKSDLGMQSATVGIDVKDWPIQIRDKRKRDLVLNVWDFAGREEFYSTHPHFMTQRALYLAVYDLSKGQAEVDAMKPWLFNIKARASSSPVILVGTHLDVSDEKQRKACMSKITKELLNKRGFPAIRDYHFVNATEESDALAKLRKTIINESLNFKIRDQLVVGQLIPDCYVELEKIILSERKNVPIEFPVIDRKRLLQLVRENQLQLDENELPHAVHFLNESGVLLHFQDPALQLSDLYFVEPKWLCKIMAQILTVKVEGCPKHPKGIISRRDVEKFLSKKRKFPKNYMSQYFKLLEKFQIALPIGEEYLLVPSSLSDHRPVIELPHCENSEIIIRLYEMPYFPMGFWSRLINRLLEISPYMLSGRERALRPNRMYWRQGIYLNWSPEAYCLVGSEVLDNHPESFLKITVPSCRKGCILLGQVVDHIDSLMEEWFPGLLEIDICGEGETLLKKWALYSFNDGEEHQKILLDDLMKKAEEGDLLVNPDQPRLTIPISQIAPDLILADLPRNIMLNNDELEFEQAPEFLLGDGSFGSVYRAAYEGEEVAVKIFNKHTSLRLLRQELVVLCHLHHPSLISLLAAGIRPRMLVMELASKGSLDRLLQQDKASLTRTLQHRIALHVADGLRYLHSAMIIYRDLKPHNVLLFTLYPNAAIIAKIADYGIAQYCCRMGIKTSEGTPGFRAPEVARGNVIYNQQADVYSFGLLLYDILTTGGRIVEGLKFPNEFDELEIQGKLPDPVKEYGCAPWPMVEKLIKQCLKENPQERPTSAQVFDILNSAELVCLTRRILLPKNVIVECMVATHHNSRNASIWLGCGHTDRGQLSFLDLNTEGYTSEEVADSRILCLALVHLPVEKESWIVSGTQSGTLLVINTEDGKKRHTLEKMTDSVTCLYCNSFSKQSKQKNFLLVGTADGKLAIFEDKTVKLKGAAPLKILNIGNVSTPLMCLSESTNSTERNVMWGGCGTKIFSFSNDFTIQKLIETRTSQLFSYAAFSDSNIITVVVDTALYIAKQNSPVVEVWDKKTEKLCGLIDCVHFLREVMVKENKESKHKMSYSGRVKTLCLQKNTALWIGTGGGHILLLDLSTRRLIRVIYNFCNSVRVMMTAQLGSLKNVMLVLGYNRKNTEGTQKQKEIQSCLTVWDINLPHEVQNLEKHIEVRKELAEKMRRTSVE
T2 sequence (Q5S007 whole entry G2019S): as the sequence (Q5S007 whole entry) above, with G2019S counted along it

SMILES	Dmax [1] [%]	DC50 [1] [nM]	DC50 [2] [nM]	Dmax [2] [%]
CC1(Oc2ccc3[nH]nc(-c4ccnc(N5CC6(CCN6CC6CCN(CC7CCN(c8ccc9c(c8)C(=O)N(C8CCC(=O)NC8=O)C9=O)CC7)CC6)C5)c4)c3c2)CC1 (stereo not drawn) [Compound 163, 2-(2,6-dioxo-3-piperidyl)-5-[4-[[4-[[6-[4-[5-(1-methylcyclopropoxy)-1H-indazol-3-yl]-2-pyridyl]-1,6-diazaspiro[3.3]heptan-1-yl]methyl]-1-piperidyl]methyl]-1-piperidyl]isoindoline-1,3-dione]	< 50	10 to 50	10 to 50	< 50
CC1(Oc2ccc3[nH]nc(-c4ccnc(N5CC(CCC6CCN(CC7CCN(c8ccc9c(c8)C(=O)N(C8CCC(=O)NC8=O)C9=O)CC7)CC6)C5)c4)c3c2)CC1 (stereo not drawn) [Compound 165, 2-(2,6-dioxo-3-piperidyl)-5-[4-[[4-[2-[1-[4-[5-(1-methylcyclopropoxy)-1H-indazol-3-yl]-2-pyridyl]azetidin-3-yl]ethyl]-1-piperidyl]methyl]-1-piperidyl]isoindoline-1,3-dione]	< 50	< 10	< 10	50 to 70
CC1(Oc2ccc3[nH]nc(-c4cc(N5CC[C@H](CN6CCN(CC7CCN(c8ccc9c(c8)C(=O)N(C8CCC(=O)NC8=O)C9=O)CC7)CC6)C5)ncn4)c3c2)CC1 (stereo partly drawn) [Compound 166, 2-(2,6-dioxo-3-piperidyl)-5-[4-[[4-[[(3R)-1-[6-[5-(1-methylcyclopropoxy)-1H-indazol-3-yl]pyrimidin-4-yl]pyrrolidin-3-yl]methyl]piperazin-1-yl]methyl]-1-piperidyl]isoindoline-1,3-dione]	< 50	< 10	< 10	< 50
C[C@H]1CN(c2cc(-c3[nH]nc4ccc(OC5(C)CC5)cc34)ncn2)CCN1Cc1cn(CC2CCN(c3ccc4c(c3)C(=O)N(C3CCC(=O)NC3=O)C4=O)CC2)nn1 (stereo partly drawn) [Compound 168, 2-(2,6-dioxo-3-piperidyl)-5-[4-[[4-[[(2S)-2-methyl-4-[6-[5-(1-methylcyclopropoxy)-2H-indazol-3-yl]pyrimidin-4-yl]piperazin-1-yl]methyl]triazol-1-yl]methyl]-1-piperidyl]isoindoline-1,3-dione]	< 50	< 10	10 to 50	< 50
CC1(Oc2ccc3[nH]nc(-c4cc(N5CCN(Cc6cccc(CN7CCN(c8ccc9c(c8)C(=O)N(C8CCC(=O)NC8=O)C9=O)CC7)c6)CC5)ncn4)c3c2)CC1 (stereo not drawn) [Compound 170, 2-(2,6-dioxo-3-piperidyl)-5-[4-[[3-[[4-[6-[5-(1-methylcyclopropoxy)-2H-indazol-3-yl]pyrimidin-4-yl]piperazin-1-yl]methyl]phenyl]methyl]piperazin-1-yl]isoindoline-1,3-dione]	–	≥ 100	≥ 100	–
CC1(Oc2ccc3n[nH]c(-c4cc(N5CCN(Cc6ccc(CN7CCN(c8ccc9c(c8)C(=O)N(C8CCC(=O)NC8=O)C9=O)CC7)nn6)CC5)ncn4)c3c2)CC1 (stereo not drawn) [Compound 172, 2-(2,6-dioxo-3-piperidyl)-5-[4-[[6-[[4-[6-[5-(1-methylcyclopropoxy)-2H-indazol-3-yl]pyrimidin-4-yl]piperazin-1-yl]methyl]pyridazin-3-yl]methyl]piperazin-1-yl]isoindoline-1,3-dione]	50 to 70	< 10	< 10	50 to 70
CC1(Oc2ccc3[nH]nc(-c4ccnc(N5CCC(Cc6ccc(CC7CCN(c8ccc9c(c8)C(=O)N(C8CCC(=O)NC8=O)C9=O)CC7)cc6)CC5)c4)c3c2)CC1 (stereo not drawn) [Compound 173, 2-(2,6-dioxo-3-piperidyl)-5-[4-[[4-[[1-[4-[5-(1-methylcyclopropoxy)-1H-indazol-3-yl]-2-pyridyl]-4-piperidyl]methyl]phenyl]methyl]-1-piperidyl]isoindoline-1,3-dione]	–	≥ 100	≥ 100	–
CC1(Oc2ccc3[nH]nc(-c4cc(N5CCC(CN6CC7(CN(CC8CCN(c9ccc%10c(c9)C(=O)N(C9CCC(=O)NC9=O)C%10=O)CC8)C7)C6)CC5)ncn4)c3c2)CC1 (stereo not drawn) [Compound 175, 2-(2,6-dioxo-3-piperidyl)-5-[4-[[2-[[1-[6-[5-(1-methylcyclopropoxy)-1H-indazol-3-yl]pyrimidin-4-yl]-4-piperidyl]methyl]-2,6-diazaspiro[3.3]heptan-6-yl]methyl]-1-piperidyl]isoindoline-1,3-dione]	50 to 70	< 10	< 10	50 to 70

Other lines, results leading:

Dmax [1] [%]	DC50 [1] [nM]	DC50 [2] [nM]	Dmax [2] [%]	SMILES
50 to 70	< 10	< 10	≥ 70	CC1(Oc2ccc3[nH]nc(-c4cc(N5CC(CC6CCN(CC7CCN(c8ccc9c(c8)C(=O)N(C8CCC(=O)NC8=O)C9=O)CC7)CC6)C5)ncn4)c3c2)CC1 (stereo not drawn) [Compound 164, 2-(2,6-dioxo-3-piperidyl)-5-[4-[[4-[[1-[6-[5-(1-methylcyclopropoxy)-1H-indazol-3-yl]pyrimidin-4-yl]azetidin-3-yl]methyl]-1-piperidyl]methyl]-1-piperidyl]isoindoline-1,3-dione]
50 to 70	< 10	< 10	50 to 70	CC1(Oc2ccc3[nH]nc(-c4cc(N5CC[C@@H](CN6CCN(CC7CCN(c8ccc9c(c8)C(=O)N(C8CCC(=O)NC8=O)C9=O)CC7)CC6)C5)ncn4)c3c2)CC1 (stereo partly drawn) [Compound 167, 2-(2,6-dioxo-3-piperidyl)-5-[4-[[4-[[(3S)-1-[6-[5-(1-methylcyclopropoxy)-1H-indazol-3-yl]pyrimidin-4-yl]pyrrolidin-3-yl]methyl]piperazin-1-yl]methyl]-1-piperidyl]isoindoline-1,3-dione]
< 50	< 10	10 to 50	50 to 70	CC1(Oc2ccc3n[nH]c(-c4cc(N5CCN(Cc6ccc(CN7CCN(c8ccc9c(c8)C(=O)N(C8CCC(=O)NC8=O)C9=O)CC7)cc6)CC5)ncn4)c3c2)CC1 (stereo not drawn) [Compound 169, 2-(2,6-dioxo-3-piperidyl)-5-[4-[[4-[[4-[6-[5-(1-methylcyclopropoxy)-2H-indazol-3-yl]pyrimidin-4-yl]piperazin-1-yl]methyl]phenyl]methyl]piperazin-1-yl]isoindoline-1,3-dione]
–	≥ 100	≥ 100	< 50	CC1(Oc2ccc3n[nH]c(-c4cc(N5CCC(Cc6ccc(CC7CCN(c8ccc9c(c8)C(=O)N(C8CCC(=O)NC8=O)C9=O)CC7)cc6)CC5)ncn4)c3c2)CC1 (stereo not drawn) [Compound 171, 2-(2,6-dioxo-3-piperidyl)-5-[4-[[4-[[1-[6-[5-(1-methylcyclopropoxy)-2H-indazol-3-yl]pyrimidin-4-yl]-4-piperidyl]methyl]phenyl]methyl]-1-piperidyl]isoindoline-1,3-dione]
–	≥ 100	≥ 100	–	CC1(Oc2ccc3n[nH]c(-c4cc(N5CCC(Cc6cccc(CC7CCN(c8ccc9c(c8)C(=O)N(C8CCC(=O)NC8=O)C9=O)CC7)c6)CC5)ncn4)c3c2)CC1 (stereo not drawn) [Compound 174, 2-(2,6-dioxo-3-piperidyl)-5-[4-[[3-[[1-[6-[5-(1-methylcyclopropoxy)-2H-indazol-3-yl]pyrimidin-4-yl]-4-piperidyl]methyl]phenyl]methyl]-1-piperidyl]isoindoline-1,3-dione]
